The values below come from ChEMBL document CHEMBL1287778, “Antifungal agents. Part 5: synthesis and antifungal activities of aminoguanidine derivatives of N-arylsulfonyl-3-acylindoles” (2010).

Common to all, as to format: functional
The test system of test [1] is Fusarium oxysporum f. sp. vasinfectum. The test is described as follows: Antifungal activity against Fusarium oxysporum f. sp. vasinfectum assessed as percent inhibition at 100 ug/ml.
The subject of another test is Pyricularia oryzae. The test is described as follows: Antifungal activity against Pyricularia oryzae assessed as percent inhibition at 100 ug/ml.
A further test relates to Alternaria alternata. The test is described as follows: Antifungal activity against Alternaria alternata assessed as percent inhibition at 100 ug/ml.
The next test relates to Alternaria brassicae. The test is described as follows: Antifungal activity against Alternaria brassicae assessed as percent inhibition at 100 ug/ml.
A further test deals with Fusarium graminearum. The test is described as follows: Antifungal activity against Fusarium graminearum assessed as percent inhibition at 100 ug/ml.
Another test has as its system Bipolaris sorokiniana. As to the kind of experiment: Antifungal activity against Bipolaris sorokiniana assessed as percent inhibition at 100 ug/ml.
Test [2] is described as follows: Antifungal activity against Fusarium oxysporum f. sp. cucumerinum assessed as percent inhibition at 100 ug/ml.

As for `Cc1ccc(S(=O)(=O)n2cc(/C=N/NC(=N)N)c3ccccc32)cc1`, the inhibition at 100 µg/mL in test [1] was 51.8%; in the test on Pyricularia oryzae, 56.7%; with Alternaria alternata, 65.3%; in the test with Alternaria brassicae it was 34.9%; in the test with Fusarium graminearum, 44.1%; with Bipolaris sorokiniana, 66%. Moreover, in test [2], the inhibition was 36.5%.
For `Cc1cc(O)no1` [HYMEXAZOL], the inhibition at 100 µg/mL came to 63.2% in test [1]; 75.1% with Pyricularia oryzae; 70.8% in the test with Alternaria alternata; 58% in the test with Alternaria brassicae; 68% with Fusarium graminearum; 61.9% with Bipolaris sorokiniana. In addition, the inhibition in test [2] was 60%.
With `C/C(=N\NC(=N)N)c1cn(S(=O)(=O)c2cccc([N+](=O)[O-])c2)c2cc(C)ccc12`, the inhibition at 100 µg/mL in test [1] was 23.2%; in the test on Pyricularia oryzae, 50.7%; with Alternaria alternata it was 50.6%; with Alternaria brassicae it was 33.3%; with Fusarium graminearum, 20.6%; in the test on Bipolaris sorokiniana, 37.6%. The inhibition in test [2] came to 34.9%.
In the case of `Cc1ccc(S(=O)(=O)n2cc(/C=N/NC(=N)N)c3ccc(C)cc32)cc1`, the inhibition at 100 µg/mL in test [1] was found to be 40.5%; in the test with Pyricularia oryzae, 58.2%; in the test on Alternaria alternata, 59.2%; in the test with Alternaria brassicae, 30.9%; in the test with Fusarium graminearum it was 39%; in the test on Bipolaris sorokiniana it was 46.2%. For the same compound, the inhibition in test [2] is 43.5%.
In the case of `CCCCC/C(=N\NC(=N)N)c1cn(S(=O)(=O)c2ccccc2)c2ccccc12`, the inhibition at 100 µg/mL was 30.7% in test [1]; 52% in the test on Pyricularia oryzae; 60.6% with Alternaria alternata; 30% in the test with Alternaria brassicae; 39.4% in the test with Fusarium graminearum; 50.2% in the test with Bipolaris sorokiniana. Besides, the inhibition in test [2] is 38.6%.
Take `C/C(=N\NC(=N)N)c1cn(S(=O)(=O)c2ccc(C)cc2)c2cccc(C)c12`: the inhibition at 100 µg/mL stood at 55.6% in test [1]; 84.8% in the test on Pyricularia oryzae; 83% in the test with Alternaria alternata; 56.9% with Alternaria brassicae; 46.6% with Fusarium graminearum; 80.6% with Bipolaris sorokiniana. For the same compound, in test [2], the inhibition is 57%.
In the case of `C/C(=N\NC(=N)N)c1cn(S(=O)(=O)c2ccccc2)c2cccc(C)c12`, the inhibition at 100 µg/mL in test [1] is 64.9%; in the test with Pyricularia oryzae, 79.6%; in the test on Alternaria alternata, 79.2%; in the test on Alternaria brassicae, 52%; with Fusarium graminearum it was 52.3%; in the test on Bipolaris sorokiniana, 82.3%. The inhibition in test [2] was 63.1%.
For the compound `Cc1ccc(S(=O)(=O)n2cc(/C=N/NC(=N)N)c3c(C)cccc32)cc1`, the inhibition at 100 µg/mL is 41.6% in test [1]; 72.2% in the test on Pyricularia oryzae; 70.8% in the test with Alternaria alternata; 49.1% in the test on Alternaria brassicae; 48.2% with Fusarium graminearum; 72.6% in the test on Bipolaris sorokiniana. The inhibition in test [2] turned out to be 44.7%.
In the case of `N=C(N)N/N=C/c1cn(S(=O)(=O)c2cccc([N+](=O)[O-])c2)c2ccccc12`, the inhibition at 100 µg/mL was found to be 28.6% in test [1]; 42.3% in the test with Pyricularia oryzae; 51.1% in the test on Alternaria alternata; 30% with Alternaria brassicae; 31.4% in the test with Fusarium graminearum; 36.9% in the test with Bipolaris sorokiniana. Moreover, in test [2], the inhibition was determined as 28%.
As to `N#Cc1ccc2c(c1)c(/C=N/NC(=N)N)cn2S(=O)(=O)c1ccccc1`, the inhibition at 100 µg/mL in test [1] amounted to 14.1%; with Pyricularia oryzae it was 20.1%; in the test with Alternaria alternata, 23.4%; in the test on Alternaria brassicae, 9.09%; in the test with Fusarium graminearum it was 26%; in the test with Bipolaris sorokiniana it was 13.8%. In addition, in test [2], the inhibition worked out at 11.1%.
Take `CCCCC/C(=N\NC(=N)N)c1cn(S(=O)(=O)c2ccc(C)cc2)c2cc(C)ccc12`: the inhibition at 100 µg/mL in test [1] was 33.3%; in the test on Pyricularia oryzae, 44.5%; in the test on Alternaria alternata, 54.7%; with Alternaria brassicae, 22.8%; with Fusarium graminearum, 28.5%; in the test on Bipolaris sorokiniana, 50.5%. Moreover, the inhibition in test [2] stood at 39.8%.
In the case of `N=C(N)N/N=C/c1cn(S(=O)(=O)c2ccccc2)c2ccccc12`, the inhibition at 100 µg/mL was 47.8% in test [1]; 57.8% with Pyricularia oryzae; 61.5% in the test with Alternaria alternata; 38.8% in the test on Alternaria brassicae; 46.3% in the test on Fusarium graminearum; 66.5% in the test on Bipolaris sorokiniana. In test [2], the inhibition worked out at 33.7%.
Regarding `Cc1cccc2c1c(/C=N/NC(=N)N)cn2S(=O)(=O)c1ccccc1`, the inhibition at 100 µg/mL in test [1] came out at 19.9%; in the test on Pyricularia oryzae, 46.8%; in the test with Alternaria alternata, 42.5%; in the test with Alternaria brassicae, 21.1%; in the test with Fusarium graminearum, 26%; in the test on Bipolaris sorokiniana, 36.9%. Besides, the inhibition in test [2] was found to be 26.3%.
Take `Cc1ccc2c(/C=N/NC(=N)N)cn(S(=O)(=O)c3ccccc3)c2c1`: the inhibition at 100 µg/mL was found to be 40% in test [1]; 64.2% in the test on Pyricularia oryzae; 69.2% with Alternaria alternata; 48.4% in the test with Alternaria brassicae; 47.8% in the test with Fusarium graminearum; 59.5% in the test on Bipolaris sorokiniana. In test [2], the inhibition was 41%.
Regarding `C/C(=N\NC(=N)N)c1cn(S(=O)(=O)c2ccc(C)cc2)c2ccccc12`, the inhibition at 100 µg/mL turned out to be 58.3% in test [1]; 52.3% in the test with Pyricularia oryzae; 62.9% in the test on Alternaria alternata; 37.9% in the test on Alternaria brassicae; 48.8% in the test with Fusarium graminearum; 58.4% in the test with Bipolaris sorokiniana. Besides, the inhibition in test [2] worked out at 37.2%.
Regarding `COc1ccc(S(=O)(=O)n2cc(/C(C)=N/NC(=N)N)c3ccc(C)cc32)cc1`, the inhibition at 100 µg/mL in test [1] is 24.2%; in the test on Pyricularia oryzae it was 43%; with Alternaria alternata, 42.5%; in the test with Alternaria brassicae, 18.2%; with Fusarium graminearum, 44.8%; in the test on Bipolaris sorokiniana it was 35%. For the same compound, in test [2], the inhibition stood at 25.8%.
Regarding `CC/C(=N\NC(=N)N)c1cn(S(=O)(=O)c2ccccc2)c2ccccc12`, the inhibition at 100 µg/mL in test [1] was determined as 56.7%; in the test with Pyricularia oryzae, 75.6%; in the test on Alternaria alternata, 73.8%; in the test with Alternaria brassicae it was 43.3%; in the test with Fusarium graminearum it was 50.5%; in the test on Bipolaris sorokiniana, 69.2%. The inhibition in test [2] is 48.4%.
In the case of `C/C(=N\NC(=N)N)c1cn(S(=O)(=O)c2ccccc2)c2ccccc12`, the inhibition at 100 µg/mL in test [1] amounted to 60%; in the test on Pyricularia oryzae it was 74.3%; in the test on Alternaria alternata it was 73.5%; in the test on Alternaria brassicae it was 40.2%; in the test on Fusarium graminearum it was 37.8%; in the test on Bipolaris sorokiniana, 75.3%. Besides, in test [2], the inhibition was 49.7%.
Take `Cc1ccc(S(=O)(=O)n2cc(/C=N/NC(=N)N)c3cc(C#N)ccc32)cc1`: the inhibition at 100 µg/mL in test [1] was found to be 13%; with Pyricularia oryzae, 16.3%; in the test with Alternaria alternata it was 15.2%; in the test with Alternaria brassicae, 10.4%; in the test with Fusarium graminearum, 13.3%; in the test on Bipolaris sorokiniana, 17%. Further, the inhibition in test [2] worked out at 6.55%.

As usually defined, the inhibition is the change of the read-out against control, counted positive when it falls.
